Results on seven molecules are retold here after patent publication US20140323504A1, “Pyrazolo[4,3-c]Pyridine Derivatives As Kinase Inhibitors” (Cellzome Limited, priority 2011, published 2014).

Values joined by “and” are separate entries in the source; they are usually repeats but may differ in a detail not shown here. Identical values can stand only once. Where only a bound is given, the exact number is not on record here.

Assay [1] deals with T1, JAK3 (Homo sapiens, UniProt P52333).
T1 sequence (P52333 1-1124): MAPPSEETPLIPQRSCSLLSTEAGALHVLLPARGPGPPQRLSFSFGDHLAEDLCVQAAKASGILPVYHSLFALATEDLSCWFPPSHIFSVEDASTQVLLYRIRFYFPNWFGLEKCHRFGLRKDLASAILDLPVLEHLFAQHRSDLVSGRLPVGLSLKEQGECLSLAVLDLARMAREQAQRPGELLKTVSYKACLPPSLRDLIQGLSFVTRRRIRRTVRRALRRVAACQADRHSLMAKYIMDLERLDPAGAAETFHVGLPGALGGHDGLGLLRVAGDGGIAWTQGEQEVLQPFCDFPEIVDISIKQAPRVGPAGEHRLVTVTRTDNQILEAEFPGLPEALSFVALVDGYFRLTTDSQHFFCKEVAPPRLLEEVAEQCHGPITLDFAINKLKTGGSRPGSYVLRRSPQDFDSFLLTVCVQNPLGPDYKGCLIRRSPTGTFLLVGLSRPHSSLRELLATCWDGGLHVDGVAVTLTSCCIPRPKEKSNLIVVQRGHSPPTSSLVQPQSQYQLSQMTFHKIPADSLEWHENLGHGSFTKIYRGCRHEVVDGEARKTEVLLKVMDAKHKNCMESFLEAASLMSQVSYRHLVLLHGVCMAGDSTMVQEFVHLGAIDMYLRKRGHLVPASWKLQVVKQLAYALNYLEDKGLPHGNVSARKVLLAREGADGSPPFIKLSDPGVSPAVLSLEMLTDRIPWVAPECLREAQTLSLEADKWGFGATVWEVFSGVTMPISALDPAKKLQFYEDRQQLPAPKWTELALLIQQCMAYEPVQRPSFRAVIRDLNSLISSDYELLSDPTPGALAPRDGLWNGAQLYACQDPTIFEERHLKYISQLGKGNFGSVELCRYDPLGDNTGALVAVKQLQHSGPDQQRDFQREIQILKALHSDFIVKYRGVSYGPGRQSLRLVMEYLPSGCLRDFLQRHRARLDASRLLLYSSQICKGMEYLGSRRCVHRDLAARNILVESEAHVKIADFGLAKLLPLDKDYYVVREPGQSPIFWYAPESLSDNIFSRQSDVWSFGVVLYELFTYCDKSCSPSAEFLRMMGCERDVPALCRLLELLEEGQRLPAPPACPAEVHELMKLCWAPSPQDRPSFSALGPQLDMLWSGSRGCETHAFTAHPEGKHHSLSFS
Nature of the assay: Kinobeads assay with antibody detection, JAK3. The format is binding. Details: endogenous in cells; host or cells: mixed Molt4/Ramos cell lysate (1:2). As to conditions: mixed Molt4/Ramos lysate, read-out: JAK3 inhibition value (IC50). On the procedure:
(§1) The compounds of the present invention as described in the previous examples were tested in a Kinobeads™ assay as described for ZAP-70 (WO-A 2007/137867). Briefly, test compounds (at various concentrations) and the affinity matrix with the immobilized aminopyrido-pyrimidine ligand 24 were added to cell lysate aliquots and allowed to bind to the proteins in the lysate sample. After the incubation time the beads with captured proteins were separated from the lysate. Bound proteins were then eluted and the presence of JAK1; JAK2, JAK3 and TYK2 was detected and quantified using specific antibodies in a dot blot procedure and the Odyssey infrared detection system. Dose response curves for individual kinases were generated and IC50 values calculated. Kinobeads™ assays for ZAP-70 (WO-A 2007/137867) and for kinase selectivity profiling (WO-A 2006/134056) have been previously described.
(§2) 5×DP buffer: 250 mM Tris-HCl pH 7.4, 25% Glycerol, 7.5 mM MgCl2, 750 mM NaCl, 5 mM Na3VO4; filter the 5×DP buffer through a 0.22 μm filter and store in aliquot at −80° C. The 5×DP buffer is diluted with H2O to 1×DP buffer containing 1 mM DTT and 25 mM NaF.
(§3) Stock solutions of test compounds were prepared in DMSO. In a 96 well plate 30 μL solution of diluted test compounds at 5 mM in DMSO were prepared. Starting with this solution a 1:3 dilution series (9 steps) was prepared. For control experiments (no test compound) a buffer containing 2% DMSO was used.
(§4) Molt4 cells (ATCC catalogue number CRL-1582) and Ramos cells (ATCC catalogue number CRL-1596) were grown in 1 L Spinner flasks (Integra Biosciences, #182101) in suspension in RPMI 1640 medium (Invitrogen, #21875-034) supplemented with 10% Fetal Bovine Serum (Invitrogen) at a density between 0.15×10^6 and 1.2×10^6 cells/mL. Cells were harvested by centrifugation, washed once with 1×PBS buffer (Invitrogen, #14190-094) and cell pellets were frozen in liquid nitrogen and subsequently stored at −80° C. Cells were homogenized in a Potter S homogenizer in lysis buffer: 50 mM Tris-HCl, 0.8% NP40, 5% glycerol, 150 mM NaCl, 1.5 mM MgCl2, 25 mM NaF, 1 mM sodium vanadate, 1 mM DTT, pH 7.5. One complete EDTA-free tablet (protease inhibitor cocktail, Roche Diagnostics, 1873580) per 25 mL buffer was added. The material was dounced 10 times using a mechanized POTTER S, transferred to 50 mL falcon tubes, incubated for 30 minutes on ice and spun down for 10 minutes at 20,000 g at 4° C. (10,000 rpm in Sorvall SLA600, precooled). The supernatant was transferred to an ultracentrifuge (UZ)-polycarbonate tube (Beckmann, 355654) and spun for 1 hour at 100.000 g at 4° C. (33.500 rpm in Ti50.2, precooled). The supernatant was transferred again to a fresh 50 mL falcon tube, the protein concentration was determined by a Bradford assay (BioRad) and samples containing 50 mg of protein per aliquot were prepared. The samples were immediately used for experiments or frozen in liquid nitrogen and stored frozen at −80° C.
(§5) Cell lysate (approximately 50 mg protein per plate) was thawed in a water bath at room temperature and then stored on ice. To the thawed cell lysate 1×DP 0.8% NP40 buffer containing protease inhibitors (1 tablet for 25 mL buffer; EDTA-free protease inhibitor cocktail; Roche. Diagnostics 1873580) was added in order to reach a final protein concentration of 10 mg/mL total protein. The diluted cell lysate was stored on ice. Mixed Molt4Ramos lysate was prepared by combining one volume of Molt4 lysate and two volumes of Ramos lysate (ratio 1:2).
(§6) Plates were sealed and incubated for 3 hours in a cold room on a plate shaker (Heidolph tiramax 1000) at 750 rpm. Afterwards the plate was washed 3 times with 230 μL washing buffer (1×DP 0.4% NP40). The filter plate was placed on top of a collection plate (Greiner bio-one, PP-microplate 96 well V-shape, 65120) and the beads were then eluted with 20 μL of sample buffer (100 mM Tris, pH 7.4, 4% SDS, 0.00025% bromophenol blue, 20% glycerol, 50 mM DTT). […]

Assay [2] concerns the target T2, JAK1 (Homo sapiens, UniProt P23458).
T2 construct: endogenous in cells; host or cells: mixed Molt4/Ramos cell lysate (1:2)
The assay is described as follows: Kinobeads assay with antibody detection, JAK1. The format is binding. As to conditions: mixed Molt4/Ramos lysate, read-out: JAK1 inhibition value (IC50). As to the method:
as §1, §2, §3, §4, §5, §6

Assay [3] concerns the target T3, JAK2 (Homo sapiens, UniProt O60674).
T3 construct: endogenous in cells; host or cells: mixed Molt4/Ramos cell lysate (1:2)
The assay is described as follows: Kinobeads assay with antibody detection, JAK2. The format is binding. As to conditions: mixed Molt4/Ramos lysate, read-out: JAK2 inhibition value (IC50). As to the method: as §1, §2, §3, §4, §5, §6

Assay [4] addresses T4, Tyk2 (Homo sapiens, UniProt P29597).
T4 construct: endogenous in cells; host or cells: mixed Molt4/Ramos cell lysate (1:2)
The assay is described as follows: Kinobeads assay with antibody detection, TYK2. To be noted: mixed Molt4/Ramos lysate, read-out: Tyk2 inhibition value (IC50). Format: binding. On the procedure:
as §1, §2, §3, §4, §5, §6

Assay [5] relates to GVHD. To be noted: Cetkovic-Cvrlje and Ucken, 2004; cited from earlier work.
In assay [6] the test system is NOD mouse model of type I diabetes. To be noted: cited from earlier work.
In assay [7] the test system is STAT5 phosphorylation in IL-2 stimulated YT cells. Nature of the assay: Cell assay with washout of compounds (pSTAT5, YT cells, MSD). Format: cell-based, human. On the procedure:
This time course experiment allows determination as to whether the pharmacological effect of the tested compounds persists over time even after the compound is removed from the cell samples.
Human YT cells were grown as described above. Cells were harvested by centrifugation and resuspended in RPMI0.5% heat-inactivated FBS. 3×10^5 cells were seeded in 60 μl per well in a round-bottomed 96 well plate (BD-Falcon, 353077).
Test compounds were dissolved in DMSO and a 1:3 dilution series (9 steps) was prepared. To generate a dose response curve, 30 μl of fourfold concentrated compound in 4% DMSO/RPMI/0.5% FBS were added to each cell sample in the 96 well plate resulting in a final DMSO concentration of 1% DMSO. Cells were incubated for one hour in a humidified incubator (37° C., 5% CO2). After incubation cells were washed twice by centrifugation and replacement of media (RPMI/0.5% FBS), with the exception of the time 0 plate. Washed cells were incubated for 30 min, 1, 2 and 4 hours in a humidified incubator (37° C., 5% CO2) prior to stimulation with IL-2. To each well 30 μl of a fourfold concentrated IL-2 solution (Recombinant human IL-2, Peprotech 200-02; 120 nM solution in RPMI) was added and incubated for 30 minutes at room temperature. Cells were lysed by adding 30 μl of 5× lysis buffer (MSD lysis buffer) and incubated for 10 minutes at 4° C. with gentle shaking.
The effect of compounds on STATS phosphorylation was determined in lysates using the MSD MULTI-SPOT® 96 4-spot phosphor-STAT5a,b whole cell lysatc kit (MesoScale Discovery, K150IGD-3) according to the manufacturer's protocol. Data were analysed in BioAssay using the nonlinear regression for a sigmoidal dose-response with a variable slope and IC50 values were determined.

In assay [8] the test system is animal model of organ transplantation. As to conditions: Changelian et al., 2003; cited from earlier work.
Setting [9] is: IL-2 stimulated YT cells, 0 min (no wash).

T2 sequence (P23458 whole entry): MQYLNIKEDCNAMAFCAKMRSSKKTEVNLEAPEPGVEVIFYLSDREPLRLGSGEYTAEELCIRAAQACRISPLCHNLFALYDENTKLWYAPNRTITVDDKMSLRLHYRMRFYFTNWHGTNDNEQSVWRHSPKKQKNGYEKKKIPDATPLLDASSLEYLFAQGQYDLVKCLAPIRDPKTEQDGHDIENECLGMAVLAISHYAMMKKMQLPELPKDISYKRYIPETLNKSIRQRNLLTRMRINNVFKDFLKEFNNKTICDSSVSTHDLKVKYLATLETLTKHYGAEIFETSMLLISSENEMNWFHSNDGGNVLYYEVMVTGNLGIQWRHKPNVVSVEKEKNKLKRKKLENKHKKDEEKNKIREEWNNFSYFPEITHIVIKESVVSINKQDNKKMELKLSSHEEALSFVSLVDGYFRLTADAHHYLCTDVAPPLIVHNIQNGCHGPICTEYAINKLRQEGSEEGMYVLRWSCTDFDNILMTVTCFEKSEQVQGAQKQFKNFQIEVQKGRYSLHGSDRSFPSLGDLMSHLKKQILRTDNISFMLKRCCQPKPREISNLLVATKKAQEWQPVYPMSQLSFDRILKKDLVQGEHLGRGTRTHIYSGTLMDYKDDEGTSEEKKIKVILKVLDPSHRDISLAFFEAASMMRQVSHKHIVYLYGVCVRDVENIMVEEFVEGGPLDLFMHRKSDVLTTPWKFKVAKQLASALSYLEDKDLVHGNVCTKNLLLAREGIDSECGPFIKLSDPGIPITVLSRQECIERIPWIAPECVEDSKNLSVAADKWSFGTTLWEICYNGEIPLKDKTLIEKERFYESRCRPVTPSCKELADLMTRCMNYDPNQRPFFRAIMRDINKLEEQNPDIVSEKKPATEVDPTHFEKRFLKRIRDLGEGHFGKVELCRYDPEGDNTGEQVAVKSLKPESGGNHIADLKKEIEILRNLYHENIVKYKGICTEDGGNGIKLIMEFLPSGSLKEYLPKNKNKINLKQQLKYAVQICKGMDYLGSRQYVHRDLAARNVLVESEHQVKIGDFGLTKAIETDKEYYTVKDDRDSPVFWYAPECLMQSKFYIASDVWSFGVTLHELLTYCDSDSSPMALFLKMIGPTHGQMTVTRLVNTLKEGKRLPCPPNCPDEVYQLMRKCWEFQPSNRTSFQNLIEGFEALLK
T3 sequence (O60674 whole entry): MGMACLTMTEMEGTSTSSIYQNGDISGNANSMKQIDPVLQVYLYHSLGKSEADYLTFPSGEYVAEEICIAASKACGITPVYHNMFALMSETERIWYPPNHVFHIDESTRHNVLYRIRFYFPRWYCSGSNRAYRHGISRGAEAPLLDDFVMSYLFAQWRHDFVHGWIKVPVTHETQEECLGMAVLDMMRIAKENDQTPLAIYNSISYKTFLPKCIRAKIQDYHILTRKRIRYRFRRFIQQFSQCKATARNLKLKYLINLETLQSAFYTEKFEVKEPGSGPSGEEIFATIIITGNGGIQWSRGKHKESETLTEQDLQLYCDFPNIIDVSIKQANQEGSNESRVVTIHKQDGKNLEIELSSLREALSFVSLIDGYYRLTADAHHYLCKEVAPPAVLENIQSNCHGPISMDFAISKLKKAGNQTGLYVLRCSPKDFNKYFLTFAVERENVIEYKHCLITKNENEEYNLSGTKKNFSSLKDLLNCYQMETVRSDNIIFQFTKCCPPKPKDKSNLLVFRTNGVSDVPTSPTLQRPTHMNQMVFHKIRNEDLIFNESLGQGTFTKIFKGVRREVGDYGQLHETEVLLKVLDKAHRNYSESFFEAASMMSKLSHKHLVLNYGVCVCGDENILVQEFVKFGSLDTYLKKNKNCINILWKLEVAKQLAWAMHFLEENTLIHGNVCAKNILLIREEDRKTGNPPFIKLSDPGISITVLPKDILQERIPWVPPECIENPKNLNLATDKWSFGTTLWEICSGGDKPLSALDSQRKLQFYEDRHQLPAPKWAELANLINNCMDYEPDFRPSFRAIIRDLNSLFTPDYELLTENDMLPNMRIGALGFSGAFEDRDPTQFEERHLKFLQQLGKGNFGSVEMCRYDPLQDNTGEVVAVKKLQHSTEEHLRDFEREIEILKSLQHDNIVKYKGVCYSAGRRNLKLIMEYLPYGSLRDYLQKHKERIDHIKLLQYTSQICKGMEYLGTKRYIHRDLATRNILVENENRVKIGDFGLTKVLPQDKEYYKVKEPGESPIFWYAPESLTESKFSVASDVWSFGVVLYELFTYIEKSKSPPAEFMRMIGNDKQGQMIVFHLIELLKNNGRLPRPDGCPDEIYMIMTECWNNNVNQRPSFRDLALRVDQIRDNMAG
T4 sequence (P29597 whole entry): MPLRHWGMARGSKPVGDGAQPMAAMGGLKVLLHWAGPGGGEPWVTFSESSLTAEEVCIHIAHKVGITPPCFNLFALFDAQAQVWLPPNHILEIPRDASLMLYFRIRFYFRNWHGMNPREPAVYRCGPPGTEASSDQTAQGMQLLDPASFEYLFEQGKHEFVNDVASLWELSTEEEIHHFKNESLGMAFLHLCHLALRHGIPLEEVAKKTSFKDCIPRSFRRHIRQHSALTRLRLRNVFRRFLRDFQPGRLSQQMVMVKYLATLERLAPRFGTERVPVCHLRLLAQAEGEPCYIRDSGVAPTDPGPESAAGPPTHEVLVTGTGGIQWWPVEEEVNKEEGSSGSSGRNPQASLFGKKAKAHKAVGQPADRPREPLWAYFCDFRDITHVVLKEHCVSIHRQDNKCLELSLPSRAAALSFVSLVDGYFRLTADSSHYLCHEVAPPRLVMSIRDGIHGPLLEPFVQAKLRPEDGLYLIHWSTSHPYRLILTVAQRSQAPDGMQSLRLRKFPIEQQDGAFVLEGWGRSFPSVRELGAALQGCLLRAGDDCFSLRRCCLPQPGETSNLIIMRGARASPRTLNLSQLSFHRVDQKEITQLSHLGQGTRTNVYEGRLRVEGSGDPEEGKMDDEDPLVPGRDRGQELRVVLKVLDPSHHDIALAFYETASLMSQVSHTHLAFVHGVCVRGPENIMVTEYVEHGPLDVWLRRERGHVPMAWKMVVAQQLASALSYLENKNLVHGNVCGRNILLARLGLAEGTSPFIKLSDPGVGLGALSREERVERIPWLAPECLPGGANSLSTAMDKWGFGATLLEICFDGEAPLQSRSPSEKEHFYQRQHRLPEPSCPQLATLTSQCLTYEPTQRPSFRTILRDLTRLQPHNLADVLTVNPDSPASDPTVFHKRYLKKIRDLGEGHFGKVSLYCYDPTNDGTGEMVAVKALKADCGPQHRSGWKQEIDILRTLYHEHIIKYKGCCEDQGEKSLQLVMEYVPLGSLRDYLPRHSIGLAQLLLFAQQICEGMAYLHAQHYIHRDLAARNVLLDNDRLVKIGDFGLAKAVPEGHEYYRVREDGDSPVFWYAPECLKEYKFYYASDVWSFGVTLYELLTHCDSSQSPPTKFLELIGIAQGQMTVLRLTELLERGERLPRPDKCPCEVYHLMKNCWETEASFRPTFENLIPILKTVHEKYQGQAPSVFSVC

In the case of `C=CC(=O)Nc1cccc(Cn2ccc3cnc(Nc4cnn(C)c4)nc32)c1` [Example 9, N-(3-((2-((1-Methyl-1H-pyrazol-4-yl)amino)-7H-pyrrolo[2,3-d]pyrimidin-7-yl)methyl)phenyl)acrylamide], the IC50 in assay [1] is 0.003 µM; in assay [2], 9.42 µM; in assay [3], more than 10 µM; in assay [4], 8.08 µM.
As to `C=CC(=O)Nc1cccc(Cn2ncc3cnc(Nc4cnn(C)c4)cc32)c1` [Example 10, N-(3-((6-((1-Methyl-1H-pyrazol-4-yl)amino)-1H-pyrazolo[4,3-c]pyridin-1-yl)methyl)phenyl)acrylamide], the IC50 was 0.001 µM in assay [1], 5.37 µM in assay [2], more than 10 µM in assay [3] and 5.08 µM in assay [4].
The like results for `C=CC(=O)Nc1cccc(Cn2ncc3cnc(Nc4ccn(C)n4)cc32)c1` [Example 8, N-(3-((6-((1-Methyl-1H-pyrazol-3-yl)amino)-1H-pyrazolo[4,3-c]pyridin-1-yl)methyl)phenyl)acrylamide] were, in that order, 0.005 µM, more than 10 µM, more than 10 µM and more than 10 µM.
Turning to `CC(C)=CC(=O)Nc1cccc(Cn2ncc3cnc(Nc4cnn(C)c4)nc32)c1` [Example 6, 3-Methyl-N-(3-((6-((1-methyl-1H-pyrazol-4-yl)amino)-1H-pyrazolo[3,4-d]pyrimidin-1-yl)methyl)phenyl)but-2-enamide], the IC50 in assay [1] is 1.31 µM; in assay [2], more than 10 µM; in assay [3] it was more than 10 µM; in assay [4], more than 10 µM.
In the case of `COc1cc2ncnc(Nc3ccc(O)cc3)c2cc1OC` [JANEX-1], the “severity of GVHD” value in assay [5] is “attenuate the severity of GVHD”. Also, the “spontaneous autoimmune diabetes development” value in assay [6] is “prevent spontaneous autoimmune diabetes development”.
Take `Cn1cc(Nc2ncc3cnn(Cc4cccc(NC5COC5)c4)c3n2)cn1` [Reference example 1, N-(1-methyl-1H-pyrazol-4-yl)-1-(3-(oxetan-3-ylamino)benzyl)-1H-pyrazolo[3,4-d]pyrimidin-6-amine]: the IC50 in assay [7] (Homo sapiens, 0 h, IL-2 stimulated YT cells, 0 min (no wash), read-out: pSTAT5 inhibition pIC50, 0 min (no wash) (converted)) was 1.58 µM. Moreover, the “pSTAT5 inhibition pIC50, 0 min (no wash)” value in assay [7] (setting [9]) is 5.7. In assay [7] (IL-2 stimulated YT cells), the “pSTAT5 inhibition pIC50, 30 min after washout” value is “inactive”; the “pSTAT5 inhibition pIC50, 1 hour after washout” value was “inactive”; the “pSTAT5 inhibition pIC50, 2 hours after washout” value was “inactive”; the “pSTAT5 inhibition pIC50, 4 hours after washout” value is “inactive”.
With `C[C@@H]1CCN(C(=O)CC#N)C[C@@H]1N(C)c1ncnc2[nH]ccc12` [Reference example 3, CP 690,550], the “pSTAT5 inhibition pIC50, 0 min (no wash)” value in assay [7] (setting [9]) is 7.6 and 7.8. For the same molecule, in assay [7] (IL-2 stimulated YT cells), the “pSTAT5 inhibition pIC50, 30 min after washout” value is given as 5.1; the “pSTAT5 inhibition pIC50, 1 hour after washout” value is “inactive”; the “pSTAT5 inhibition pIC50, 2 hours after washout” value was “inactive”; the “pSTAT5 inhibition pIC50, 4 hours after washout” value is reported as “Inactive”. For the same molecule, in assay [7] (YT cells, 30 minutes after washing), the “activity 30 minutes after the washing of cells” value is recorded as “significant drop in activity”. Further, the “inhibition activity 1 hour after washing” value in assay [7] (YT cells, 1 hour after washing) is listed as “completely lost”. The “efficacy in organ transplantation model” value in assay [8] is recorded as “show efficacy in an animal model of organ transplantation”.
